27 compounds from patent US7704995B2 (Exelixis, Inc., priority 2003, dated 2010) can be followed below.

As a reminder, the IC50 is the concentration at which inhibition is half-maximal.

The target of one assay is T1, Chk1 (Homo sapiens, UniProt O14757).
T1 construct: purchased Upstate Biotechnology
T1 sequence (O14757 1-476): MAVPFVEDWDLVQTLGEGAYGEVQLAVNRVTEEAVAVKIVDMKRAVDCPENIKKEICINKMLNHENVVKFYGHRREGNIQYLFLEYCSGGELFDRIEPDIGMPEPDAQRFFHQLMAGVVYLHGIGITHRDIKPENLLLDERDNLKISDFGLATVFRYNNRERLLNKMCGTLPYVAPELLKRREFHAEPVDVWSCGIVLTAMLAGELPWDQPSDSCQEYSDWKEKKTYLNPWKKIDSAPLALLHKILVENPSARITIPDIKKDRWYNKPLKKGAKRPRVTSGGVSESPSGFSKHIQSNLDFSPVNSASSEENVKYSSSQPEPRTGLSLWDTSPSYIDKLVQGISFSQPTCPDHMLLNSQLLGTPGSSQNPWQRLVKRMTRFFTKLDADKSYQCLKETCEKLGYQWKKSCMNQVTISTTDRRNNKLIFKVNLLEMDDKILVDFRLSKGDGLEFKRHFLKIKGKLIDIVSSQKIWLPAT
In words: Chk1 kinase assay: incorporation of γ-33P ATP into immobilized myelin basic protein. The format is biochemical. The settings on record: Table 11, Chk1 only; class symbols A-D; read-out: Chk1 IC50. In short, it runs like this:
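Chk1 (10 nM) or Chk2 (20 nM) phosphorylated plate-immobilized myelin basic protein for 1 h at room temperature in Hepes pH 7.6 buffer with MgCl2, DTT, 1% DMSO, γ-33P ATP plus 10 μM (Chk1) or 30 μM (Chk2) unlabeled ATP. Bound radioactivity counted by scintillation; IC50 determined, Ki derivable from IC50.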
Regarding `CN1CC[C@H](NC(=O)c2nc(-c3cccc(C(=O)N[C@@H]4c5ccccc5C[C@@H]4O)c3)cnc2N)C1` [Example 805, 3-amino-6-[3-({[(1R,2S)-2-hydroxy-2,3-dihydro-1H-inden-1-yl]amino}carbonyl)phenyl]-N-[(3S)-1-methylpyrrolidin-3-yl]pyrazine-2-carboxamide], the IC50 fell in the range of 0.05 to 1 µM.
Turning to `Nc1ncc(-c2cccc(CN[C@@H]3c4ccccc4C[C@@H]3O)c2)nc1C(=O)N[C@H]1CCNC1` [Example 806, 3-amino-6-[3-({[(1R,2S)-2-hydroxy-2,3-dihydro-1H-inden-1-yl]amino}methyl)phenyl]-N-[(3S)-pyrrolidin-3-yl]pyrazine-2-carboxamide], the IC50 was below 0.05 µM.
`Nc1ncc(-c2cccc(C(=O)N[C@@H]3c4ccccc4C[C@@H]3O)c2)nc1C(=O)N[C@H]1CCCNC1` [Example 807, 3-amino-6-[3-({[(1R,2S)-2-hydroxy-2,3-dihydro-1H-inden-1-yl]amino}carbonyl)phenyl]-N-[(3S)-piperidin-3-yl]pyrazine-2-carboxamide]: the IC50 is below 0.05 µM.
In the case of `Nc1ncc(-c2cccc(CN[C@H]3CCCc4ccccc43)c2)nc1C(=O)N[C@H]1CCNC1` [Example 808, 3-amino-N-[(3S)pyrrolidin-3-yl]-6-(3-{[(1S)-1,2,3,4-tetrahydronaphthalen-1-ylamino]methyl}phenyl)pyrazine-2-carboxamide], the 50% inhibitory concentration (IC50) is below 0.05 µM.
On the same count and under the same terms, next, `Nc1ncc(-c2cccc(NC(=O)Cc3ccc(Cl)cc3Cl)c2)nc1-c1nnc([C@H]2CCCNC2)[nH]1` [Example 809, N-[3-(5-amino-6-{5-[(3S)-piperidin-3-yl]-4H-1,2,4-triazol-3-yl}pyrazin-2-yl)phenyl]-2-(2,4-dichlorophenyl)acetamide]: below 0.05 µM.
As to `CC(C)(C)OC(=O)N1CC[C@H](NC(=O)c2nc(-c3cccc(S(=O)(=O)N[C@@H]4CCc5ccccc54)c3)cnc2N)C1` [Example 810, 1,1-dimethylethyl (3S)-3-({[3-amino-6-(3-{[(1R)-2,3-dihydro-1H-inden-1-ylamino]sulfonyl}phenyl)pyrazin-2-yl]carbonyl}amino)pyrrolidine-1-carboxylate], the IC50 was at least 10 µM.
Take `Nc1ncc(-c2cccc(O)c2)nc1C(=O)N[C@H]1CCNC1` [Example 811, 3-amino-6-(3-hydroxyphenyl)-N-[(3S)-pyrrolidin-3-yl]pyrazine-2-carboxamide]: the IC50 was 0.05 to 1 µM.
`Nc1ncc(-c2cccc(S(=O)(=O)N[C@@H]3CCc4ccccc43)c2)nc1C(=O)N[C@H]1CCNC1` [Example 812, 3-amino-6-(3-{[(1R)-2,3-dihydro-1H-inden-1-ylamino]sulfonyl}phenyl)-N-[(3S)-pyrrolidin-3-yl]pyrazine-2-carboxamide]: the IC50 was 0.05 to 1 µM.
The same measure, in the same setting: next, `Nc1ncc(-c2cccc(C(=O)N[C@H]3CCc4ccccc43)c2)nc1-c1ncn(-c2ccncc2)n1` [Example 813, 3-[5-amino-6-(1-pyridin-4-yl-1H-1,2,4-triazol-3-yl)pyrazin-2-yl]-N-[(1S)-2,3-dihydro-1H-inden-1-yl]benzamide]: 1 to 10 µM; `Nc1ncc(-c2cccc(C(=O)NCc3cc(F)c(F)c(F)c3)c2)nc1C(=O)N[C@H]1CCNC1` [Example 814, 3-amino-N-[(3S)-pyrrolidin-3-yl]-6-[3-({[(3,4,5-trifluorophenyl)methyl]amino}carbonyl)phenyl]pyrazine-2-carboxamide]: below 0.05 µM.
Same read-out and setting: the result for `Nc1ncc(-c2cccc(C(=O)NCc3c(F)ccc(F)c3F)c2)nc1C(=O)N[C@H]1CCNC1` [Example 815, 3-amino-N-[(3S)-pyrrolidin-3-yl]-6-[3-({[(2,3,6-trifluorophenyl)methyl]amino}carbonyl)phenyl]pyrazine-2-carboxamide] reads 0.05 to 1 µM.
As to `Nc1ncc(-c2cccc(C(=O)NCc3cc(F)cc(F)c3F)c2)nc1C(=O)N[C@H]1CCNC1` [Example 816, 3-amino-N-[(3S)-pyrrolidin-3-yl]-6-[3-({[(2,3,5-trifluorophenyl)methyl]amino}carbonyl)phenyl]pyrazine-2-carboxamide], the IC50 fell in the range of 0.05 to 1 µM.
For `Nc1ncc(-c2cccc(C(=O)NCc3ccc(F)c(Br)c3)c2)nc1C(=O)N[C@H]1CCNC1` [Example 817, 3-amino-6-[3-({[(3-bromo-4-fluorophenyl)methyl]amino}carbonyl)phenyl]-N-[(3S)-pyrrolidin-3-yl]pyrazine-2-carboxamide], the IC50 was below 0.05 µM.

Still in this assay, the particulars now being: Table 11; Chk1 only; read-out: Chk1 IC50.
On to `CNC(=O)c1nc(-c2cc(C(=O)N[C@H]3CCc4ccccc43)cc(C(=O)OC)c2)cnc1N` [Example 790, methyl 3-{5-amino-6-[(methylamino)carbonyl]pyrazin-2-yl}-5-{[(1S)-2,3-dihydro-1H-inden-1-ylamino]carbonyl}benzoate], for which the IC50 fell in the range of 0.05 to 1 µM.
For the compound `CNC(=O)c1nc(-c2cc(C(=O)NC3CCNC3)cc(C(=O)N[C@H]3CCc4ccccc43)c2)cnc1N` (stereo partly drawn) [Example 791, 5-{5-amino-6-[(methylamino)carbonyl]pyrazin-2-yl}-N-[(1S)-2,3-dihydro-1H-inden-1-yl]-N′-pyrrolidin-3-ylbenzene-1,3-dicarboxamide], the IC50 was 0.05 to 1 µM.
With `Nc1ncc(-c2cccc(C(=O)NCc3ccccc3)c2)nc1-c1nc(-c2ccccc2)n(-c2ccccn2)n1` [Example 792, 3-[5-amino-6-(5-phenyl-1-pyridin-2-yl-1H-1,2,4-triazol-3-yl)pyrazin-2-yl]-N-(phenylmethyl)benzamide], the IC50 is 1 to 10 µM.
With `Cc1nc(-c2nc(-c3cccc(C(=O)N[C@H]4CCc5ccccc54)c3)cnc2N)nn1-c1ccncc1` [Example 793, 3-[5-amino-6-(5-methyl-1-pyridin-4-yl-1H-1,2,4-triazol-3-yl)pyrazin-2-yl]-N-[(1S)-2,3-dihydro-1H-inden-1-yl]benzamide], the IC50 fell in the range of 1 to 10 µM.
As for `CC(C)(C)OC(=O)N1CCC[C@@H](NC(=O)c2nc(-c3cccc(C(=O)N[C@H]4CCc5ccccc54)c3)cnc2N)C1` [Example 794, 1,1-dimethylethyl (3R)-3-({[3-amino-6-(3-{[(1S)-2,3-dihydro-1H-inden-1-ylamino]carbonyl}phenyl)pyrazin-2-yl]carbonyl}amino)piperidine-1-carboxylate], the IC50 was 1 to 10 µM.
Regarding `CC(C)(C)OC(=O)N1CCC[C@@H](NC(=O)c2nc(-c3cccc(C(=O)N[C@@H]4c5ccccc5C[C@@H]4O)c3)cnc2N)C1` [Example 795, 1,1-dimethylethyl (3R)-3-[({3-amino-6-[3-({[(1R,2S)-2-hydroxy-2,3-dihydro-1H-inden-1-yl]amino}carbonyl)phenyl]pyrazin-2-yl}carbonyl)amino]piperidine-1-carboxylate], the IC50 is at least 10 µM.
Still for that read-out and setting: next, `CNC(=O)c1nc(-c2cc(C(=O)N[C@@H]3CCNC3)cc(C(=O)N[C@@H]3CCc4ccccc43)c2)cnc1N` [Example 797, 5-{5-amino-6-[(methylamino)carbonyl]pyrazin-2-yl}-N-[(1R)-2,3-dihydro-1H-inden-1-yl]-N′-[(3R)-pyrrolidin-3-yl]benzene-1,3-dicarboxamide]: 0.05 to 1 µM; `Nc1cc(-c2n[nH]c(-c3nc(-c4cccc(CO)c4)cnc3N)n2)ccn1` [Example 798, (3-{5-amino-6-[3-(2-aminopyridin-4-yl)-1H-1,2,4-triazol-5-yl]pyrazin-2-yl}phenyl)methanol]: 0.05 to 1 µM.
Regarding `Cc1nc(-c2nc(-c3cccc(C(=O)N[C@H]4CCc5ccccc54)c3)cnc2N)nn1C` [Example 799, 3-[5-amino-6-(1,5-dimethyl-1H-1,2,4-triazol-3-yl)pyrazin-2-yl]-N-[(1S)-2,3-dihydro-1H-inden-1-yl]benzamide], the IC50 is at least 10 µM.
The same measure, in the same setting: next, `CC(C)(C)OC(=O)N1CC[C@H](NC(=O)c2nc(-c3cccc(C(=O)NC(C)(C)c4ccccc4)c3)cnc2N)C1` [Example 800, 1,1-dimethylethyl (3S)-3-({[3-amino-6-(3-{[(1-methyl-1-phenylethyl)amino]carbonyl}phenyl)pyrazin-2-yl]carbonyl}amino)pyrrolidine-1-carboxylate]: at least 10 µM; `CC(C)(NC(=O)c1cccc(-c2cnc(N)c(C(=O)N[C@H]3CCNC3)n2)c1)c1ccccc1` [Example 801, 3-amino-6-(3-{[(1-methyl-1-phenylethyl)amino]carbonyl}phenyl)-N-[(3S)-pyrrolidin-3-yl]pyrazine-2-carboxamide]: 0.05 to 1 µM; `NC(=O)c1nc(-c2cccc(S(=O)(=O)N[C@H]3CCc4ccccc43)c2)cnc1N` [Example 802, 3-amino-6-(3-{[(1S)-2,3-dihydro-1H-inden-1-ylamino]sulfonyl}phenyl)pyrazine-2-carboxamide]: 1 to 10 µM.
`Nc1ncc(-c2cccc(S(=O)(=O)N[C@H]3CCc4ccccc43)c2)nc1C(=O)NC1CCCNC1` (stereo partly drawn) [Example 803, 3-amino-6-(3-{[(1S)-2,3-dihydro-1H-inden-1-ylamino]sulfonyl}phenyl)-N-piperidin-3-ylpyrazine-2-carboxamide]: the IC50 was in the range of 0.05 to 1 µM.
For `CN1CC[C@H](NC(=O)c2nc(-c3cccc(C(=O)N[C@H]4CCc5ccccc54)c3)cnc2N)C1` [Example 804, 3-amino-6-(3-{[(1S)-2,3-dihydro-1H-inden-1-ylamino]carbonyl}phenyl)-N-[(3S)-1-methylpyrrolidin-3-yl]pyrazine-2-carboxamide], the IC50 was in the range of 0.05 to 1 µM.
